Source: patent US6737383B1, “Herbicidal oxadiazolidines” (priority 1999, dated 2004)

What was measured:
wheat = experiment: Test B pre/postemergence wheat; assay type: in vivo, Triticum aestivum
Summary of the method: (§1)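 Response is a visual 0-to-10 score relative to untreated plants, where 0 means no effect and 10 means complete control, taken twelve to sixteen days after application. Treatments went onto soil at planting and onto foliage of 1- to 4-leaf plants, using a surfactant-containing non-phytotoxic solvent.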

crabgrass = experiment: Test B pre/postemergence crabgrass; assay type: in vivo, Digitaria sanguinalis
Summary of the method: as §1

velvetleaf = experiment: Test B pre/postemergence velvetleaf; assay type: in vivo, Abutilon theophrasti
Summary of the method: as §1

blackgrass = experiment: Test B pre/postemergence blackgrass; assay type: in vivo, Alopecurus myosuroides
Summary of the method: as §1

morningglory = experiment: Test B pre/postemergence morningglory; assay type: in vivo, Ipomoea hederacea
Summary of the method: as §1

pigweed = experiment: Test B pre/postemergence pigweed; assay type: in vivo, Amaranthus retroflexus
Summary of the method: as §1

soybean = experiment: Test B pre/postemergence soybean; assay type: in vivo, Glycine max
Summary of the method: as §1

sugar beet = experiment: Test B pre/postemergence sugar beet; assay type: in vivo, Beta vulgaris
Summary of the method: as §1

purple nutsedge = experiment: Test B pre/postemergence purple nutsedge; assay type: in vivo, Cyperus rotundus
Summary of the method: as §1

rape = experiment: Test B pre/postemergence rape; assay type: in vivo, Brassica napus
Summary of the method: as §1

corn = experiment: Test B pre/postemergence corn; assay type: in vivo, Zea mays
Summary of the method: as §1

cocklebur = experiment: Test B pre/postemergence cocklebur; assay type: in vivo, Xanthium strumarium
Summary of the method: as §1

wild oat = experiment: Test B pre/postemergence wild oat; assay type: in vivo, Avena fatua
Summary of the method: as §1

bedstraw = experiment: Test B pre/postemergence bedstraw; assay type: in vivo, Galium aparine; conditions: Preemergence
Summary of the method: as §1

surinam grass = experiment: Test B pre/postemergence surinam grass; assay type: in vivo, Brachiaria decumbens
Summary of the method: as §1

giant foxtail = experiment: Test B pre/postemergence giant foxtail; assay type: in vivo, Setaria faberii
Summary of the method: as §1

[1] = Postemergence, Rate 62 g/ha, scale 0 to 10, 0 is no effect, 10 is complete control
[2] = Postemergence, Rate 125 g/ha, scale of 0 to 10 where 0 is no effect and 10 is complete control
[3] = Preemergence, Rate 62 g/ha, scale of 0 to 10 where 0 is no effect and 10 is complete control
[4] = Preemergence, Rate 125 g/ha, scale of 0 to 10 where 0 is no effect and 10 is complete control
[5] = Preemergence, Rate 250 g/ha, scale 0 to 10 (0 no effect, 10 complete control)
[6] = Preemergence, Rate 500 g/ha, scale of 0 to 10 where 0 is no effect and 10 is complete control
[7] = Rate 500 g/ha, Postemergence, scale 0 to 10, 0 is no effect, 10 is complete control
[8] = Postemergence, Rate 250 g/ha, scale of 0 to 10, 0 is no effect, 10 is complete control

In the case of `C#CC(C=C(C)C)n1c(=O)on(C(=O)N(c2ccccc2)C(C)C)c1=O` (centres unmarked) [Compound 652], the “Plant response rating, Wheat” value (wheat; [1]) is reported as 0, the “Wheat plant response rating” value (wheat; [2]) is reported as 0 and the “Wheat plant response rating” value (wheat; [3]) is reported as 0. The “Wheat plant response rating” value (wheat; [4]) was 0, the “Plant response rating, Wheat” value (wheat; [5]) was 0 and the “Plant response rating, Wheat” value (wheat; [6]) was 0. The “Wheat plant response rating” value (wheat; [7]) was 2, the “Plant response rating, Crabgrass” value (crabgrass; [1]) was 0 and the “Crabgrass plant response rating” value (crabgrass; [2]) was 0. For the same molecule, the “Crabgrass plant response rating” value (crabgrass; [8]) was 0, the “Crabgrass plant response rating” value (crabgrass; [3]) was 4 and the “Crabgrass plant response rating” value (crabgrass; [4]) was 8. For the same molecule, the “Plant response rating, Crabgrass” value (crabgrass; [5]) was 8, the “Plant response rating, Crabgrass” value (crabgrass; [6]) was 9 and the “Crabgrass plant response rating” value (crabgrass; [7]) was 6. For the same molecule, the “Plant response rating, Velvetleaf” value (velvetleaf; [1]) was 0, the “Velvetleaf plant response rating” value (velvetleaf; [2]) was 0 and the “Velvetleaf plant response rating” value (velvetleaf; [3]) was 0. For the same molecule, the “Velvetleaf plant response rating” value (velvetleaf; [4]) was 0, the “Plant response rating, Velvetleaf” value (velvetleaf; [5]) was 0 and the “Plant response rating, Velvetleaf” value (velvetleaf; [6]) was 1. For the same molecule, the “Velvetleaf plant response rating” value (velvetleaf; [7]) was 0, the “Plant response rating, Blackgrass” value (blackgrass; [1]) was 0 and the “Blackgrass plant response rating” value (blackgrass; [2]) was 0. The “Blackgrass plant response rating” value (blackgrass; [8]) was 0, the “Blackgrass plant response rating” value (blackgrass; [3]) was 0 and the “Blackgrass plant response rating” value (blackgrass; [4]) was 0. For the same molecule, the “Plant response rating, Blackgrass” value (blackgrass; [5]) was 0, the “Plant response rating, Blackgrass” value (blackgrass; [6]) was 2 and the “Blackgrass plant response rating” value (blackgrass; [7]) was 0. The “Plant response rating, Morningglory” value (morningglory; [1]) was 3, the “Morningglory plant response rating” value (morningglory; [2]) was 3 and the “Morningglory plant response rating” value (morningglory; [8]) was 5. For the same molecule, the “Morningglory plant response rating” value (morningglory; [3]) was 0, the “Morningglory plant response rating” value (morningglory; [4]) was 0 and the “Plant response rating, Morningglory” value (morningglory; [5]) was 0. The “Plant response rating, Morningglory” value (morningglory; [6]) was 0, the “Morningglory plant response rating” value (morningglory; [7]) was 7 and the “Plant response rating, Redroot pigweed” value (pigweed; [1]) was 0. The “Redroot pigweed plant response rating” value (pigweed; [2]) was 0, the “Redroot pigweed plant response rating” value (pigweed; [3]) was 0 and the “Redroot pigweed plant response rating” value (pigweed; [4]) was 0. The “Plant response rating, Redroot pigweed” value (pigweed; [5]) was 0, the “Plant response rating, Redroot pigweed” value (pigweed; [6]) was 0 and the “Redroot pigweed plant response rating” value (pigweed; [7]) was 6. The “Plant response rating, Soybean” value (soybean; [1]) was 0, the “Soybean plant response rating” value (soybean; [2]) was 0 and the “Soybean plant response rating” value (soybean; [3]) was 0. The “Soybean plant response rating” value (soybean; [4]) was 0, the “Plant response rating, Soybean” value (soybean; [5]) was 0 and the “Plant response rating, Soybean” value (soybean; [6]) was 0. For the same molecule, the “Soybean plant response rating” value (soybean; [7]) was 3, the “Plant response rating, Sugarbeets” value (sugar beet; [1]) was 0 and the “Sugarbeets plant response rating” value (sugar beet; [3]) was 0. The “Sugarbeets plant response rating” value (sugar beet; [4]) was 0, the “Plant response rating, Sugarbeets” value (sugar beet; [5]) was 0 and the “Plant response rating, Sugarbeets” value (sugar beet; [6]) was 0. For the same molecule, the “Sugarbeets plant response rating” value (sugar beet; [7]) was 2, the “Nutsedge plant response rating” value (purple nutsedge; [2]) was 0 and the “Nutsedge plant response rating” value (purple nutsedge; [3]) was 0. For the same molecule, the “Nutsedge plant response rating” value (purple nutsedge; [4]) was 0, the “Plant response rating, Nutsedge” value (purple nutsedge; [5]) was 0 and the “Plant response rating, Nutsedge” value (purple nutsedge; [6]) was 3. For the same molecule, the “Nutsedge plant response rating” value (purple nutsedge; [7]) was 0, the “Plant response rating, Rape” value (rape; [1]) was 0 and the “Rape plant response rating” value (rape; [3]) was 0. The “Rape plant response rating” value (rape; [4]) was 0, the “Plant response rating, Rape” value (rape; [5]) was 0 and the “Plant response rating, Rape” value (rape; [6]) was 0. The “Rape plant response rating” value (rape; [7]) was 0, the “Plant response rating, Corn” value (corn; [1]) was 0 and the “Corn plant response rating” value (corn; [2]) was 0. For the same molecule, the “Corn plant response rating” value (corn; [8]) was 0, the “Corn plant response rating” value (corn; [3]) was 0 and the “Corn plant response rating” value (corn; [4]) was 0. For the same molecule, the “Plant response rating, Corn” value (corn; [5]) was 0, the “Plant response rating, Corn” value (corn; [6]) was 0 and the “Corn plant response rating” value (corn; [7]) was 0. For the same molecule, the “Plant response rating, Cocklebur” value (cocklebur; [1]) was 0, the “Cocklebur plant response rating” value (cocklebur; [2]) was 0 and the “Cocklebur plant response rating” value (cocklebur; [8]) was 0. For the same molecule, the “Cocklebur plant response rating” value (cocklebur; [3]) was 0, the “Cocklebur plant response rating” value (cocklebur; [4]) was 0 and the “Plant response rating, Cocklebur” value (cocklebur; [5]) was 0. The “Plant response rating, Cocklebur” value (cocklebur; [6]) was 3, the “Cocklebur plant response rating” value (cocklebur; [7]) was 0 and the “Plant response rating, Wild oats” value (wild oat; [1]) was 0. The “Wild oats plant response rating” value (wild oat; [2]) was 0, the “Wild oats plant response rating” value (wild oat; [3]) was 0 and the “Wild oats plant response rating” value (wild oat; [4]) was 0. The “Plant response rating, Wild oats” value (wild oat; [5]) was 0, the “Plant response rating, Wild oats” value (wild oat; [6]) was 0 and the “Wild oats plant response rating” value (wild oat; [7]) was 0. The “Bedstraw plant response rating” value (bedstraw; Rate 62 g/ha, scale of 0 to 10 where 0 is no effect and 10 is complete control) was 0, the “Bedstraw plant response rating” value (bedstraw; Rate 125 g/ha, scale of 0 to 10 where 0 is no effect and 10 is complete control) was 0 and the “Plant response rating, Bedstraw” value (bedstraw; Rate 250 g/ha, scale 0 to 10 (0 no effect, 10 complete control)) was 0. The “Plant response rating, Bedstraw” value (bedstraw; Rate 500 g/ha, scale of 0 to 10 where 0 is no effect and 10 is complete control) was 0, the “Plant response rating, B. signalgrass” value (surinam grass; [1]) was 0 and the “Plant response rating, B. signalgrass” value (surinam grass; [2]) was 0. The “B. signalgrass plant response rating” value (surinam grass; [8]) was 0, the “B. signalgrass plant response rating” value (surinam grass; [3]) was 0 and the “B. signalgrass plant response rating” value (surinam grass; [4]) was 0. The “Plant response rating, B. signalgrass” value (surinam grass; [5]) was 2, the “Plant response rating, B. signalgrass” value (surinam grass; [6]) was 2 and the “B. signalgrass plant response rating” value (surinam grass; [7]) was 2. For the same molecule, the “Plant response rating, Giant foxtail” value (giant foxtail; [1]) was 0, the “Giant foxtail plant response rating” value (giant foxtail; [2]) was 3 and the “Giant foxtail plant response rating” value (giant foxtail; [8]) was 4. The “Giant foxtail plant response rating” value (giant foxtail; [3]) was 8, the “Giant foxtail plant response rating” value (giant foxtail; [4]) was 9 and the “Plant response rating, Giant foxtail” value (giant foxtail; [5]) was 9. For the same molecule, the “Plant response rating, Giant foxtail” value (giant foxtail; [6]) was 9 and the “Giant foxtail plant response rating” value (giant foxtail; [7]) was 8.
